# Laboratory results as given in ChEMBL document CHEMBL4765272, “Design, synthesis and biological evaluation of tyrosine derivatives as Mcl-1 inhibitors” (Eur J Med Chem, 2020).
# Experiments:
# [1] = Inhibition of 5-FAM-BH3 peptide binding to N-terminal His8-tagged human MCL-1 (209 to 327 residues)/mouse MCL-1 (152 to 189 residues) expressed in Escherichia coli BL21 (DE3) by fluorescence polarization assay
# RPMI-8226 = experiment: Antiproliferative activity against human RPMI-8226 cells incubated for 72 hrs by MTT assay; format: functional, cell-based; conditions: RPMI-8226, 72 h
# [2] = Induction of apoptosis in human KM3 cells assessed as late apoptotic cells at 10 uM measured after 48 hrs by Annexin V-FITC/propidium iodide staining based flow cytometry (reference value: 1.15%); format: functional
# HepG2 [3] = experiment: Induction of apoptosis in human HepG2 cells assessed as viable cells at 10 uM measured after 48 hrs by Annexin V-FITC/propidium iodide staining based flow cytometry (reference value: 96.84%); format: functional; conditions: read-out: Activity
# HepG2 [4] = experiment: Induction of apoptosis in human HepG2 cells assessed as necrotic cells at 20 uM measured after 48 hrs by Annexin V-FITC/propidium iodide staining based flow cytometry (reference value: 0.52%); format: functional
# [5] = Induction of apoptosis in human KM3 cells assessed as viable cells at 20 uM measured after 48 hrs by Annexin V-FITC/propidium iodide staining based flow cytometry (reference value: 96.24%); format: functional; conditions: read-out: Activity
# HepG2 [6] = experiment: Antiproliferative activity against human HepG2 cells incubated for 72 hrs by MTT assay; format: functional, cell-based; conditions: HepG2, 72 h
# [7] = Induction of apoptosis in human KM3 cells assessed as early apoptotic cells at 10 uM measured after 48 hrs by Annexin V-FITC/propidium iodide staining based flow cytometry (reference value: 2.18%); format: functional
# HepG2 [8] = experiment: Induction of apoptosis in human HepG2 cells measured after 48 hrs by Annexin V-FITC/propidium iodide staining based flow cytometry; format: functional, cell-based
# HepG2 [9] = experiment: Induction of apoptosis in human HepG2 cells assessed as viable cells at 20 uM measured after 48 hrs by Annexin V-FITC/propidium iodide staining based flow cytometry (reference value: 96.84%); format: functional; conditions: read-out: Activity
# [10] = Inhibition of 5-FAM-BH3 peptide binding to human N-terminal GST-tagged BCL-2 (1 to 34 residues)/BCL-XL (29 to 44 residues)/BCL-2 isoform 2 (92 to 207 residues) expressed in Escherichia coli BL21 (DE3) by fluorescence polarization assay
# [11] = Induction of apoptosis in human KM3 cells assessed as viable cells at 10 uM measured after 48 hrs by Annexin V-FITC/propidium iodide staining based flow cytometry (reference value: 96.24%); format: functional; conditions: read-out: Activity
# HepG2 [12] = experiment: Induction of apoptosis in human HepG2 cells assessed as late apoptotic cells at 10 uM measured after 48 hrs by Annexin V-FITC/propidium iodide staining based flow cytometry (reference value: 1.93%); format: functional
# MOLT-4 = experiment: Antiproliferative activity against human MOLT-4 cells incubated for 72 hrs by MTT assay; format: functional, cell-based; conditions: MOLT-4, 72 h
# [13] = Antiproliferative activity against human KM3 cells incubated for 72 hrs by MTT assay; format: functional, cell-based; conditions: KM3, 72 h
# PC-3 = experiment: Antiproliferative activity against human PC-3 cells incubated for 72 hrs by MTT assay; format: functional, cell-based; conditions: PC-3, 72 h
# NCI-H1299 = experiment: Antiproliferative activity against human NCI-H1299 cells incubated for 72 hrs by MTT assay; format: functional, cell-based; conditions: NCI-H1299, 72 h
# [14] = Induction of apoptosis in human KM3 cells assessed as early apoptotic cells at 20 uM measured after 48 hrs by Annexin V-FITC/propidium iodide staining based flow cytometry (reference value: 2.18%); format: functional
# HepG2 [15] = experiment: Induction of apoptosis in human HepG2 cells assessed as early apoptotic cells at 10 uM measured after 48 hrs by Annexin V-FITC/propidium iodide staining based flow cytometry (reference value: 0.71%); format: functional
# Jurkat = experiment: Antiproliferative activity against human Jurkat cells incubated for 72 hrs by MTT assay; format: functional, cell-based
# HepG2 [16] = experiment: Induction of apoptosis in human HepG2 cells assessed as early apoptotic cells at 20 uM measured after 48 hrs by Annexin V-FITC/propidium iodide staining based flow cytometry (reference value: 0.71%); format: functional
# HepG2 [17] = experiment: Induction of apoptosis in human HepG2 cells assessed as late apoptotic cells at 20 uM measured after 48 hrs by Annexin V-FITC/propidium iodide staining based flow cytometry (reference value: 1.93%); format: functional
# KM3 = experiment: Induction of apoptosis in human KM3 cells measured after 48 hrs by Annexin V-FITC/propidium iodide staining based flow cytometry; format: functional, cell-based
# HepG2 [18] = experiment: Induction of apoptosis in human HepG2 cells assessed as necrotic cells at 10 uM measured after 48 hrs by Annexin V-FITC/propidium iodide staining based flow cytometry (reference value: 0.52%); format: functional
# [19] = Induction of apoptosis in human KM3 cells assessed as necrotic cells at 10 uM measured after 48 hrs by Annexin V-FITC/propidium iodide staining based flow cytometry (reference value: 0.42%); format: functional
# [20] = Induction of apoptosis in human KM3 cells assessed as late apoptotic cells at 20 uM measured after 48 hrs by Annexin V-FITC/propidium iodide staining based flow cytometry (reference value: 1.15%); format: functional
# [21] = biological target: Bcl-2-like protein 1 (Homo sapiens) (UniProt Q07817); experiment: Inhibition of 5-FAM-BH3 peptide binding to human N-terminal GST-tagged BCL-XL (1 to 212 residues) expressed in Escherichia coli BL21 (DE3) at 100 uM by fluorescence polarization assay relative to control
# [22] = Induction of apoptosis in human KM3 cells assessed as necrotic cells at 20 uM measured after 48 hrs by Annexin V-FITC/propidium iodide staining based flow cytometry (reference value: 0.42%); format: functional
# Sequence of Bcl-2-like protein 1 (Homo sapiens) (Q07817 whole entry, the tested form may be a part): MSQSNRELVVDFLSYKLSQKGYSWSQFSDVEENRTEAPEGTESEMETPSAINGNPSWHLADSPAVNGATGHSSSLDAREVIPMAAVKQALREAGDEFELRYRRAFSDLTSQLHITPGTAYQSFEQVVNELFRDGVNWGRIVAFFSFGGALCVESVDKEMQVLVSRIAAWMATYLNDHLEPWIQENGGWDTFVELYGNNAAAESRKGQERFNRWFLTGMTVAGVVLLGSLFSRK
smiles,measurement,setting,value
Cc1ccc(C(=O)N[C@@H](Cc2ccc(OCCOc3cccc4ccccc34)cc2)C(=O)NS(=O)(=O)c2ccc(Cl)c([N+](=O)[O-])c2)cc1,Ki,[1],0.71 µM
CC(C)(C)OC(=O)N[C@@H](Cc1ccc(OCCOc2cccc3ccccc23)cc1)C(=O)NS(=O)(=O)c1ccc(Cl)c([N+](=O)[O-])c1,Ki,[1],5 µM
Cc1cc(OCCOc2ccc(C[C@H](NC(=O)OC(C)(C)C)C(=O)NS(=O)(=O)c3ccc(NCCCc4ccccc4)c([N+](=O)[O-])c3)cc2)cc(C)c1Cl,Ki,[1],0.45 µM
Cc1ccc(CC(=O)N[C@@H](Cc2ccc(OCCOc3ccccc3)cc2)C(=O)NS(=O)(=O)c2ccc(Cl)c([N+](=O)[O-])c2)cc1,Ki,[1],8.5 µM
Cc1cc(OCCOc2ccc(C[C@H](NC(=O)c3ccccc3)C(=O)NS(=O)(=O)c3ccc(NCCCc4ccccc4)c([N+](=O)[O-])c3)cc2)cc(C)c1Cl,IC50,RPMI-8226,7.61 µM
same,Activity,[2],5.52%
same,viability at 10 µM,HepG2 [3],82.3%
same,Activity,HepG2 [4],4.13%
same,viability at 20 µM,[5],11.9%
same,IC50,HepG2 [6],11.7 µM
same,Activity,[7],10.52%
same,Activity,HepG2 [8],Dose-dependent effect
same,Ki,[1],0.27 µM
same,viability at 20 µM,HepG2 [9],18.5%
same,Ki,[10],1.7 µM
same,viability at 10 µM,[11],83%
same,Activity,HepG2 [12],11.72%
same,IC50,MOLT-4,13.9 µM
same,IC50,[13],7.46 µM
same,IC50,PC-3,14.3 µM
same,IC50,NCI-H1299,12.9 µM
same,Activity,[14],17.71%
same,Activity,HepG2 [15],0.87%
same,IC50,Jurkat,13 µM
same,Activity,HepG2 [16],2.25%
same,Activity,HepG2 [17],75.13%
same,Activity,KM3,Dose-dependent effect
same,Activity,HepG2 [18],5.13%
same,Activity,[19],1.01%
same,Activity,[20],68.68%
same,inhibition,[21],> 50%
same,Activity,[22],1.73%
O=C(Cc1ccc(Cl)cc1)N[C@@H](Cc1ccc(OCCOc2cccc3ccccc23)cc1)C(=O)NS(=O)(=O)c1ccc(Cl)c([N+](=O)[O-])c1,Ki,[1],0.51 µM
Cc1ccc(CC(=O)N[C@@H](Cc2ccc(OCCOc3cccc4ccccc34)cc2)C(=O)NS(=O)(=O)c2ccc(NCCCc3ccccc3)c([N+](=O)[O-])c2)cc1,Ki,[1],0.44 µM
Cc1ccc(CC(=O)N[C@@H](Cc2ccc(OCCOc3cccc4ccccc34)cc2)C(=O)NS(=O)(=O)c2ccc(Cl)c([N+](=O)[O-])c2)cc1,Ki,[1],0.59 µM
COc1ccc(CC(=O)N[C@@H](Cc2ccc(OCCOc3cccc4ccccc34)cc2)C(=O)NS(=O)(=O)c2ccc(NCCCc3ccccc3)c([N+](=O)[O-])c2)cc1,Ki,[1],0.5 µM
Cc1ccc(CC(=O)N[C@@H](Cc2ccc(OCCOc3cc(C)c(Cl)c(C)c3)cc2)C(=O)NS(=O)(=O)c2ccc(Cl)c([N+](=O)[O-])c2)cc1,Ki,[1],0.48 µM
CC(C)(C)OC(=O)N[C@@H](Cc1ccc(OCCOc2ccccc2)cc1)C(=O)NS(=O)(=O)c1ccc(Cl)c([N+](=O)[O-])c1,Ki,[1],> 15 µM
CC(C)(C)OC(=O)N[C@@H](Cc1ccc(OCCOc2cccc3ccccc23)cc1)C(=O)NS(=O)(=O)c1ccc(NCCc2ccccc2)c([N+](=O)[O-])c1,Ki,[1],0.42 µM
CC(C)(C)OC(=O)N[C@@H](Cc1cc(Cl)c(OCCOc2cccc3ccccc23)c(Cl)c1)C(=O)NS(=O)(=O)c1ccc(Cl)c([N+](=O)[O-])c1,Ki,[1],1 µM
Cc1cc(OCCOc2ccc(C[C@H](NC(=O)OC(C)(C)C)C(=O)NS(=O)(=O)c3ccc(Cl)c([N+](=O)[O-])c3)cc2)cc(C)c1Cl,Ki,[1],0.7 µM
Cc1ccc(CC(=O)N[C@@H](Cc2cc(Br)c(OCCOc3cccc4ccccc34)c(Br)c2)C(=O)NS(=O)(=O)c2ccc(Cl)c([N+](=O)[O-])c2)cc1,Ki,[1],0.97 µM
Cc1cc(OCCOc2ccc(C[C@H](NC(=O)OC(C)(C)C)C(=O)NS(=O)(=O)c3ccc(NCCOc4ccccc4)c([N+](=O)[O-])c3)cc2)cc(C)c1Cl,Ki,[1],0.67 µM
Cc1ccc(CC(=O)N[C@@H](Cc2ccc(OCCOc3cccc4ccccc34)cc2)C(=O)NS(=O)(=O)c2ccc(NCCc3ccccc3)c([N+](=O)[O-])c2)cc1,Ki,[1],0.47 µM
Cc1cc(OCCCOc2ccc(C[C@H](NC(=O)OC(C)(C)C)C(=O)NS(=O)(=O)c3ccc(Cl)c([N+](=O)[O-])c3)cc2)cc(C)c1Cl,Ki,[1],0.66 µM
CC(C)(C)OC(=O)N[C@@H](Cc1ccc(OCCOc2cccc3ccccc23)cc1)C(=O)NS(=O)(=O)c1ccc(NCCCc2ccccc2)c([N+](=O)[O-])c1,Ki,[1],1.1 µM
Cc1ccc(CC(=O)N[C@@H](Cc2ccc(OCCOc3cc(C)c(Cl)c(C)c3)cc2)C(=O)NS(=O)(=O)c2ccc(NCCOc3ccccc3)c([N+](=O)[O-])c2)cc1,Ki,[1],0.34 µM
Cc1cc(OCCCCOc2ccc(C[C@H](NC(=O)OC(C)(C)C)C(=O)NS(=O)(=O)c3ccc(Cl)c([N+](=O)[O-])c3)cc2)cc(C)c1Cl,Ki,[1],0.71 µM
Cc1ccc(CC(=O)N[C@@H](Cc2cc(Cl)c(OCCOc3cccc4ccccc34)c(Cl)c2)C(=O)NS(=O)(=O)c2ccc(Cl)c([N+](=O)[O-])c2)cc1,Ki,[1],0.72 µM
CC(C)(C)OC(=O)N[C@@H](Cc1cc(I)c(OCCOc2cccc3ccccc23)c(I)c1)C(=O)NS(=O)(=O)c1ccc(Cl)c([N+](=O)[O-])c1,Ki,[1],1.4 µM
Cc1cc(OCCCCOc2ccc(C[C@H](NC(=O)OC(C)(C)C)C(=O)NS(=O)(=O)c3ccc(NCCCc4ccccc4)c([N+](=O)[O-])c3)cc2)cc(C)c1Cl,IC50,RPMI-8226,8.61 µM
same,IC50,HepG2 [6],11 µM
same,Ki,[1],0.26 µM
same,Ki,[10],1.2 µM
same,IC50,MOLT-4,19.7 µM
same,IC50,[13],9.7 µM
same,IC50,PC-3,9.71 µM
same,IC50,NCI-H1299,22.9 µM
same,IC50,Jurkat,21.2 µM
same,inhibition,[21],> 50%
Cc1ccc(CC(=O)N[C@@H](Cc2ccc(OCCOc3cccc4ccccc34)cc2)C(=O)NS(=O)(=O)c2ccc(NCc3ccccc3)c([N+](=O)[O-])c2)cc1,Ki,[1],0.76 µM
CC(C)(C)OC(=O)N[C@@H](Cc1ccc(OCCOc2ccc(Cl)cc2)cc1)C(=O)NS(=O)(=O)c1ccc(Cl)c([N+](=O)[O-])c1,Ki,[1],4.8 µM
Cc1ccc(CC(=O)N[C@@H](Cc2ccc(OCCOc3ccc(Cl)cc3)cc2)C(=O)NS(=O)(=O)c2ccc(Cl)c([N+](=O)[O-])c2)cc1,Ki,[1],1.6 µM
Cc1ccc(CC(=O)N[C@@H](Cc2cc(I)c(OCCOc3cccc4ccccc34)c(I)c2)C(=O)NS(=O)(=O)c2ccc(Cl)c([N+](=O)[O-])c2)cc1,Ki,[1],0.57 µM
